# Results: patent US8378104B2 (OSI Pharmaceuticals, LLC, priority 2010, dated 2013)
# Where a name gives a salt, the structure may show the parent alone.
# How the values were obtained:
# pJNK in HCT-116 cells = assay: Phospho-JNK (Thr183/Tyr185) Meso Scale ELISA assay, TNFα-stimulated HCT-116 cells; assay type: cell-based; settings: Homo sapiens, read-out: mean HCT-116 pJNK ELISA IC50 (Col. B)
# Method in brief: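 Meso Scale ELISA read of phospho-JNK (Thr183/Tyr185) in lysed HCT-116 cells. Cells were serum-reduced to 1% FCS for 2 hours, exposed to test drug for 4 hrs at 37° C, then given 10 ng/mL TNFα (final) for 10 minutes before lysis.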
# TAK1-TAB1 fusion protein = target: T1, TAK1-TAB1 fusion protein (Homo sapiens, UniProt O43318); assay: TAK1 biochemical assay (AlphaScreen, GST-MAP2K7 substrate); settings: TAK1-TAB1 fusion protein, GST-MAP2K7 substrate; read-out: mean TAK1 IC50 (Col. A)
# T1 construct: purchased Carna
# T1 sequence (O43318 with tags, fused parts or gaps limits assumed): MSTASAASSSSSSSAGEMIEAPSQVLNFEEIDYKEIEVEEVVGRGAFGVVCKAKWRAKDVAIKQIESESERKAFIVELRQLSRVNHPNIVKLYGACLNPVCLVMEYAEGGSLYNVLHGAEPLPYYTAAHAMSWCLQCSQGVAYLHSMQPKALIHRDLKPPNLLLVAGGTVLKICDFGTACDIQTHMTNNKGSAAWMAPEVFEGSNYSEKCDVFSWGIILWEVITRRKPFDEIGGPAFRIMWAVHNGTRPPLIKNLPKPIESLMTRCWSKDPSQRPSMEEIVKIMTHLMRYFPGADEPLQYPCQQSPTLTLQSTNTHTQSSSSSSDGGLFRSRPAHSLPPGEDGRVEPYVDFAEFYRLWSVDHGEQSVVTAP
SMILES,IC50 (pJNK in HCT-116 cells),IC50 (TAK1-TAB1 fusion protein)
"CNc1nc2cccc(-c3cc4c(-c5cnn([C@H]6CC[C@H](O)CC6)c5)cnc(N)c4o3)c2s1 [Example 351, trans-4-(4-{7-amino-2-[2-(methylamino)-1,3-benzothiazol-7-yl]furo[2,3-c]pyridin-4-yl}-1H-pyrazol-1-yl)cyclohexanol Trifluoroacetate (Salt)]",< 100 nM,< 100 nM
"Nc1ncc(-c2cnn([C@@H]3C[C@H]4CC[C@@H](C3)N4C=O)c2)c2cc(-c3csc4cnccc34)oc12 [Example 324, (3-exo)-3-{4-[7-amino-2-(thieno[2,3-c]pyridin-3-yl)furo[2,3-c]pyridin-4-yl]-1H-pyrazol-1-yl}-8-azabicyclo[3.2.1]octane-8-carbaldehyde]",< 100 nM,< 100 nM
"CN1[C@@H]2CC[C@H]1C[C@H](n1cc(-c3cnc(N)c4oc(-c5cccc6cnsc56)cc34)cn1)C2 [Example 330, 2-(1,2-benziso-thiazol-7-yl)-4-{1-[(3-exo)-8-methyl-8-azabicyclo[3.2.1]oct-3-yl]-1H-pyrazol-4-yl}furo[2,3-c]pyridin-7-amine]",100 to 1000 nM,< 100 nM
"COCCCn1cc(-c2cnc(N)c3oc(-c4csc5cnccc45)cc23)cn1 [Example 342, 4-[1-(3-methoxy-propyl)-1H-pyrazol-4-yl]-2-thieno[2,3-c]pyridin-3-yl-furo[2,3-c]pyridin-7-ylamine]",100 to 1000 nM,100 to 1000 nM
"CC(C)(C)OC(=O)N1[C@@H]2CC[C@H]1C[C@H](n1cc(-c3cnc(N)c4oc(-c5csc6cnccc56)cc34)cn1)C2 [Example 299, tert-butyl (3-exo)-3-{4-[7-amino-2-(thieno[2,3-c]pyridin-3-yl)furo[2,3-c]pyridin-4-yl]-1H-pyrazol-1-yl}-8-azabicyclo[3.2.1]octane-8-carboxylate]",100 to 1000 nM,100 to 1000 nM
"Nc1ncc(-c2cnn([C@@H]3C[C@H]4CC[C@@H](C3)N4C=O)c2)c2cc(-c3cccc4cnsc34)oc12 [Example 326, (3-exo)-3-{4-[7-amino-2-(1,2-benzisothiazol-7-yl)furo[2,3-c]pyridin-4-yl]-1H-pyrazol-1-yl}-8-azabicyclo[3.2.1]octane-8-carbaldehyde]",< 100 nM,< 100 nM
"Cc1c(-c2cccc3nnsc23)oc2c(N)ncc(-c3cnn([C@H]4CC[C@H](O)CC4)c3)c12 [Example 362, trans-4-{4-[7-amino-2-(1,2,3-benzothiadiazol-7-yl)-3-methylfuro[2,3-c]pyridin-4-yl]-1H-pyrazol-1-yl}cyclohexanol]",< 100 nM,< 100 nM
"Nc1ncc(-c2ccoc2)c2cc(-c3csc4cnccc34)oc12 [Example 392, 4-(furan-3-yl)-2-(thieno[2,3-c]pyridin-3-yl)furo[2,3-c]pyridin-7-amine trifluoroacetate]",1000 to 10000 nM,100 to 1000 nM

# More lines, now with the values ahead:
IC50 (pJNK in HCT-116 cells),IC50 (TAK1-TAB1 fusion protein),SMILES
100 to 1000 nM,100 to 1000 nM,"Nc1ncc(-c2cnn([C@H]3CC[C@H](O)CC3)c2)c2cc(-c3csc4cnc(Cl)cc34)oc12 [Example 247, trans-4-{4-[7-amino-2-(5-chlorothieno[2,3-c]pyridin-3-yl)furo[2,3-c]pyridin-4-yl]-1H-pyrazol-1-yl}cyclohexanol bis(trifluoroacetate)]"
100 to 1000 nM,100 to 1000 nM,"CC(=O)N1CCC(n2cc(-c3cnc(N)c4oc(-c5csc6cnc(Cl)cc56)cc34)cn2)CC1 [Example 246, 1-(4-{4-[7-amino-2-(5-chlorothieno[2,3-c]pyridin-3-yl)furo[2,3-c]pyridin-4-yl]-1H-pyrazol-1-yl}piperidin-1-yl)ethanone bis(trifluoroacetate)]"
100 to 1000 nM,< 100 nM,"CC(=O)N1CCC(n2cc(-c3cnc(N)c4oc(-c5nn(C)c6cnccc56)cc34)cn2)CC1 [Example 363, 1-(4-{4-[7-amino-2-(1-methyl-1H-pyrazolo[3,4-c]pyridin-3-yl)furo[2,3-c]pyridin-4-yl]-1H-pyrazol-1-yl}piperidin-1-yl)ethanone trifluoroacetic acid salt]"
< 100 nM,< 100 nM,"Nc1ncc(-c2cnn([C@H]3CC[C@H](O)CC3)c2)c2cc(-c3cccc4ncsc34)oc12 [Example 231, trans-4-{4-[7-amino-2-(1,3-benzothiazol-7-yl)furo[2,3-c]pyridin-4-yl]-1H-pyrazol-1-yl}cyclohexanol diformate salt]"
< 100 nM,< 100 nM,"Nc1ncc(-c2cnn([C@@H]3CCC[C@@H](O)C3)c2)c2cc(-c3csc4cnccc34)oc12 (relative stereo) [Example 309, trans-3-[4-(7-amino-2-thieno[2,3-c]pyridin-3-yl-furo[2,3-c]pyridin-4-yl)-pyrazol-1-yl]-cyclohexanol]"
< 100 nM,100 to 1000 nM,"CC(=O)N1CCC(n2cc(-c3cnc(N)c4oc(-c5c(C#N)sc6cnccc56)cc34)cn2)CC1 [Example 264, 3-{4-[1-(1-acetylpiperidin-4-yl)-1H-pyrazol-4-yl]-7-aminofuro[2,3-c]pyridin-2-yl}thieno[2,3-c]pyridine-2-carbonitrile Trifluoroacetate]"
1000 to 10000 nM,100 to 1000 nM,"CC(=O)N1CCC(n2cc(-c3cnc(N)c4oc(-c5csc6cnc(O)cc56)cc34)cn2)CC1 [Example 251, 1-(4-{4-[7-amino-2-(5-hydroxythieno[2,3-c]pyridin-3-yl)furo[2,3-c]pyridin-4-yl]-1H-pyrazol-1-yl}piperidin-1-yl)ethanone bis(trifluoroacetate)]"
1000 to 10000 nM,100 to 1000 nM,"CC(=O)N1CCC(n2cc(-c3cnc(N)c4oc(-c5c6ccncc6nn5C)cc34)cn2)CC1 [Example 364, 1-(4-{4-[7-amino-2-(2-methyl-2H-pyrazolo[3,4-c]pyridin-3-yl)furo[2,3-c]pyridin-4-yl]-1H-pyrazol-1-yl}piperidin-1-yl)ethanone trifluoroacetic Acid Salt]"
100 to 1000 nM,< 100 nM,"CC(=O)N1CCC(n2cc(-c3cnc(N)c4oc(-c5cn(C)c6cnccc56)cc34)cn2)CC1 [Example 266, 1-(4-{4-[7-amino-2-(1-methyl-1H-pyrrolo[2,3-c]pyridin-3-yl)-furo[2,3-c]pyridin-4-yl]-pyrazol-1-yl}-piperidin-1-yl)-ethanone]"
100 to 1000 nM,100 to 1000 nM,"CC(=O)N1CCC(n2cc(-c3cnc(N)c4oc(-c5c(F)ccc6cnsc56)cc34)cn2)CC1 [Example 239, 1-(4-{4-[7-amino-2-(6-fluoro-1,2-benzothiazol-7-yl)furo[2,3-c]pyridin-4-yl]-1H-pyrazol-1-yl}piperidin-1-yl)ethanone diformate salt]"
